Source: patent publication US7527971B2, “Adult stem cell lines” (Vitro Diagnostics, Inc., priority 2004, dated 2009)
Ends that are not written are not given here.

Experiments:
[1] = test system: VIT1 cells; assay: Induction of ILCC, insulin and Ep-CAM in VIT1 cells by GLP-1 (IHC); type: cell-based, human
Description: VIT1 cells were cultured and expanded through multiple passages as described in Example 2, “Cell Growth Analysis”. The culture medium used for expansion was VitroPlus II, (Vitro Diagnostics, Inc, Catalog Number VC03014) containing 10 nM GLP-1 (1-37) (Bachem, Catalog Number H-5552). Different cultures were expanded for 11 to 20 days encompassing two to five passages prior to immunohistochemical determination of insulin or Ep-CAM. A negative control culture that was expanded in VitroPlus II without added GLP-1 through 6 passages (24 days) prior to IHC determination of insulin. Insulin and Ep-CAM presence within these cultures was determined by fixation of the cultured cells in 1% glutaraldehyde, overnight incubation with insulin MAB (Sigma Chemical Co, Catalog Number I2018) at 1/1000 dilution in PBS or Ep-CAM, (Epithelial Specific Antigen) MAB (Biogenesis, Catalog Number 4240-4009) at 1/200 dilution in PBS followed by washout and incubation with an HRP-conjugated secondary antibody (Goat-anti-mouse-HRP (Jackson ImmunoResearch Laboratories, Inc., Catalog Number 115-035-062) at 37° C. for 30 minutes. Following washout of the secondary antibody, the fixed cells were then incubated for 15 minutes in diaminobenzidine (Sigma Chemical Co, Catalog Number D-4293), and the stained cultures were examined by phase-contrast microscopy and photographed. […]

[2] = test system: VIT4-G9 cells; assay: Insulin secretion from VIT4-G9 cultures after growth/differentiation conditions; type: cell-based, human
Description: ILCC were examined to determine the level of insulin content and its secretion by use an immunoassay specific to human insulin (Linco Research, Catalog Number EZHI-14K). Since the growth medium contains recombinant human insulin, tissues were extensively washed with PBS prior to determination of secretion. ILCC were acutely maintained in a physiological saline solution (140 mM NaCl, 5 mM KCl, 5 mM CaCl2, 0.5% BSA, 1 mM sodium pyruvate, 2 mM glucose, and 10 mM HEPES, pH 7.4). […] The control solution contained 2 mM glucose, the elevated glucose solution was identical but contained 20 mM glucose, and the elevated K^+ solution contained 50 mM K^+, while the other constituents were identical to the control solution. The physiological saline solution was collected following centrifugation (10 minutes at 470×g) and frozen at −20° C. for later analysis. The remaining ILCC were lyzed in 10 mM Tris, 1 mM EDTA and 10% glycerol; the pellet was extracted overnight at 4° C. in 70% ethanol, 0.18 mM HCl and the extract was dried using Model DNA 110 Speed Vac (Savant, Inc.). The dried extract was reconstituted in 100 μl PBS prior to assay for insulin content. […] For example, glucose-stimulated insulin secretion requires expression of functional glucose transporter protein and glucokinase in addition to insulin. […]

[3] = test system: primary cultures of dispersed human pancreatic cells; assay: Effect of HGF on ILCC growth and morphology in primary cultures; type: cell-based
Description: The effects of hepatocyte growth factor (HGF; PeproTech, Inc. Catalog Number 100-39) were determined by addition to the growth medium described above at a final concentration of 30 ng/ml. […] The acute effects of HGF on ILCC growth and morphology were determined and longer-term experiments were conducted as follows. The sample consisted of a cryopreserved, non-settled fraction of cells resulting from sub-culture of ILCC from the first passage of the culture of human pancreatic dispersed cells prepared as described above. The frozen cells were rapidly thawed, cryopreservative was washed out and the cells were plated at 10,000/cm^2 during the second passage. Cultures were exposed to 30 ng/ml HGF or control medium without added HGF and the cultures were expanded through 4 passages. Thereafter, both the control and HGF cultures were maintained and expanded through 8 passages using growth medium without added HGF. The number of ILCC in these cultures was determined by microscopic inspection.
To determine if ILCC cultures were affected by environmental conditions, the effect of HGF exposure was determined as described above (See: Methods). HGF is known to be mitogenic to beta cells, increases beta cell mass and total insulin production in vivo (Gracia-Ocana, et. al, 2000). HGF is also a known survival factor for a variety of cells (Dai, et. al, 2003). […]

[4] = test system: VIT4-G9 cells; assay: Effect of nicotinamide on prevalence of ILCC in VIT4-G9 cultures; type: cell-based, human; conditions: 10 mM nicotinamide
Source text: A general principle of developmental cell biology is that cellular differentiation and growth are at least partially exclusive of each other. High rates of cellular proliferation usually occur in the absence of differentiation, while differentiation usually requires quiescence or low rates of cell proliferation. Initial observations of the clonal cell line VIT4-G9 were consistent with this concept since pancreatic hormone-containing ILCC only appeared at later stages of culture following slower cell growth as a consequence of confluence and possibly contact inhibition.

[5] = test system: VIT1 cells; assay: IHC analysis of insulin or Ep-CAM positive cells in VIT1 culture exposed to nicotinamide; type: cell-based, human; conditions: 10 mM nicotinamide, 5-day exposure

glucagon-like peptide 1 (HAEGTFTSDVSSYLEGQAAKEFIAWLVKGR; ends and bridges not checked; UniProt P01275 98-127, looked up) [GLP-1, GLP-1 (1-37) (Bachem, Catalog Number H-5552)]
Ep-CAM expression by IHC ([1]; 10 nM GLP-1): induced | Reduction of ILCC frequency in negative control culture lacking GLP-1 ([1]; 10 nM GLP-1 in VitroPlus II versus no GLP-1): thousand-fold | Glucose-stimulated insulin secretion: requirement during growth phase ([2]; GLP-1 in VitroPlus II, 5 days): necessary

hepatocyte growth factor [HGF]
Increase in number of ILCC ([3]; 30 ng/ml HGF during passages 2 through 4, counted at early pass 7): ~5 fold | Morphology of ILCC ([3]; 30 ng/ml HGF, short time of exposure, reversed when HGF removed): shift in the morphology of ILCC from larger islets containing small cells to more loosely attached, smaller islets composed of larger cells

NC(=O)c1cccnc1 [nicotinamide]
Increase in prevalence of ILCC [4]: about 5 fold | Number of insulin or Ep-CAM positive cells by IHC [5]: did not appear to change | Glucose-stimulated insulin secretion: requirement in differentiation phase ([2]; 10 mM nicotinamide in 0.5% FBS VitroPlus II, 6 days): necessary
